In patent EP1792902A1, “Processes for preparation of 5-(6-quinazolinyl)-furan-2-carbaldehydes” (priority 2000, dated 2002):

What was measured:
[1] = Slurry equilibration method, relative physical stability of anhydrate and monohydrate crystal forms; conditions: for Equilibrium Form: 25°C, pXRD
c-erbB-2 = target: T1, c-erbB-2 (Homo sapiens, UniProt P04626); test: Substrate phosphorylation assay, erbB2 tyrosine kinase inhibition; assay type: biochemical; conditions: tested in buffered solution
T1 construct: recombinant constructs of the intracellular domains of c-erbB-2 and c-erbB-4 that are constitutively active; made in house
T1 sequence (P04626 676-1255 limits assumed): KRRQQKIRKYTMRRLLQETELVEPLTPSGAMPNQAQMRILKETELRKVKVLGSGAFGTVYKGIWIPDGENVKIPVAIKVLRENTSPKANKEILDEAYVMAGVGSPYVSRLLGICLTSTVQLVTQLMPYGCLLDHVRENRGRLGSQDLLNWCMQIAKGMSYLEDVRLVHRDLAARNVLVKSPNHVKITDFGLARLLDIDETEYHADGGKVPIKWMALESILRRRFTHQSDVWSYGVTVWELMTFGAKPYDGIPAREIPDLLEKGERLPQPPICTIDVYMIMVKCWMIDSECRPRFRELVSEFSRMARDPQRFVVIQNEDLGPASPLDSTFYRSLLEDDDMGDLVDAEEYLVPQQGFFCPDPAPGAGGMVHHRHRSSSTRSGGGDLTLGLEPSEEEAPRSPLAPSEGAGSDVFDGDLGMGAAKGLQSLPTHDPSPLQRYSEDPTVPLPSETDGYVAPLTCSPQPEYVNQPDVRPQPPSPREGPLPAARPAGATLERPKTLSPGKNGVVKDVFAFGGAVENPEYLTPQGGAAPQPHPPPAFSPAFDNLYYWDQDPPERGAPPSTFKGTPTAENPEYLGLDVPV
Text: (§1) The substrate phosphorylation assays use baculovirus expressed, recombinant constructs of the intracellular domains of c-erbB-2 and c-erbB-4 that are constitutively active and EGFr isolated from solubilised A431 cell membranes. The method measures the ability of the isolated enzymes to catalyse the transfer of the g-phosphate from ATP onto tyrosine residues in a biotinylated synthetic peptide (Biotin-[…]. Substrate phosphorylation was detected following either of the following two procedures: • a.) c-ErbB-2, c-ErbB4 or EGFr were incubated for 30 minutes, at room temperature, with 10mM MnCl2, […], and test compound (diluted from a 5mM stock in DMSO, final DMSO concentration is 2%) in 40mM HEPES buffer, pH 7.4. The reaction was stopped by the addition of EDTA (final concentration 0.15mM) and a sample was transferred to a streptavidin-coated 96-well plate. The plate was washed and the level of phosphotyrosine on the peptide was determined using a Europium-labelled antiphosphotyrosine antibody and quantified with a time-resolved fluorescence technique. • b.) ErbB2 was incubated for 50 minutes at room temperature with 15 mM MnCl2, 2 mM ATP, 0.25 mCi [g-^33P] […] The SPA signal was measured using a Packard Topcount 96-well plate scintillation counter (Packard Instrument Co., Meriden, CT).

c-erbB-4 = target: T2, c-erbB-4 (Homo sapiens, UniProt Q15303); test: Substrate phosphorylation assay, erbB4 tyrosine kinase inhibition; assay type: biochemical; conditions: tested in buffered solution
T2 construct: recombinant constructs of the intracellular domains of c-erbB-2 and c-erbB-4 that are constitutively active; made in house
T2 sequence (Q15303 676-1308 limits assumed): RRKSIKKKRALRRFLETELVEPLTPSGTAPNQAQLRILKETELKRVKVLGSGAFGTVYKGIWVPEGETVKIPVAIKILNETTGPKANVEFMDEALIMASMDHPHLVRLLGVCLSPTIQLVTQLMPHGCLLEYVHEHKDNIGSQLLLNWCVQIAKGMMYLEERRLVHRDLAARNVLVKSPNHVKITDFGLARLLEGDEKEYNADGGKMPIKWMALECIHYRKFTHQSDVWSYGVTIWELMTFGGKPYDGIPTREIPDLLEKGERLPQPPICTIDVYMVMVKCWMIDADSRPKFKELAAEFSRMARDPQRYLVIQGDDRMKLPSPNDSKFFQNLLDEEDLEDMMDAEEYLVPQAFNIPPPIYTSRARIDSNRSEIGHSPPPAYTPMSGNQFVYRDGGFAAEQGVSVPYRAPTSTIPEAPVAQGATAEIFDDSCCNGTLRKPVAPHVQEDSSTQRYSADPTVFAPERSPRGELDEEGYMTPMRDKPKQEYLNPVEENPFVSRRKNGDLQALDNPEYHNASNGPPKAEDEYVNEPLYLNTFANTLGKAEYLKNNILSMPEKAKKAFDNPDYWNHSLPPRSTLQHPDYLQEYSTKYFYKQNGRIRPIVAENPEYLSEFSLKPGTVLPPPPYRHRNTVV
Text: as §1

[2] = test system: gastric tumor (N87) cell lines; test: Methylene Blue Growth Inhibition Assay, N87; assay type: cell-based; conditions: Homo sapiens, 72 h; 3 days incubation, methylene blue staining
Experimental: (§2) Human breast (BT474), head and neck (HN5) and gastric tumor (N87) cell lines and human foreskin Fibroblasts (HFF) were cultured in low glucose DMEM (Life Technologies 12320-032) containing 10% fetal bovine serum (FBS) at 37°C in a humidified 10% CO2, 90% air incubator. The SV40 transformed human mammary epithelial cell line HB4a was transfected with either human H-ras cDNA (HB4a r4.2) or the human c-erbB2 cDNA (HB4a c5.2). The HB4a clones were cultured in RPMI containing 10% FBS, insulin (5 µg/ml), hydrocortisone (5 µg/ml), supplemented with the selection agent hygromycin B (50µg/ml). Cells were harvested using trypsin/EDTA, counted using a haemocytometer, and plated in […] of the appropriate media, at the following densities, in a 96-well tissue culture plate (Falcon 3075): BT474 10,000 cells/well, HN5 3,000 cells/well, N87 10,000 cells/well, HB4a c5.2 3,000 cells/well, HB4a r4.2 3,000 cells/well, HFF 2500 cells/well. The next day, compounds were diluted in DMEM containing […] gentamicin, at twice the final required concentration, from 10mM stock solutions in DMSO. […]/well of these dilutions were added to the 100ml of media currently on the cell plates. Medium containing 0.6% DMSO was added to control wells. Compounds diluted in DMEM were added to all cell lines, including the HB4a r4.2 and HB4a c5.2 cell lines. The final concentration of DMSO in all wells was 0.3%. Cells were incubated at 37°C, 10% CO2 for 3 days. Medium was removed by aspiration. Cell biomass was estimated by staining cells with 100µl per well methylene blue (Sigma M9140, 0.5% in 50:50 ethanol:water), and incubation at room temperature for at least 30 minutes. Stain was removed, and the plates rinsed under a gentle stream of water, and air-dried. To release stain from the cells 100µl of solubilization solution was added (1% N-lauroyl sarcosine, Sodium salt, Sigma L5125, in PBS), and plates were shaken gently for about 30 minutes. Optical density at 620 nm was measured on a microplate reader. Percent inhibition of cell growth was calculated relative to vehicle treated control wells. […]

head and neck (HN5) = test: Methylene Blue Growth Inhibition Assay, HN5; assay type: cell-based; conditions: Homo sapiens, 72 h; 3 days incubation, methylene blue staining; read-out: HN5 IC50 uM Cell
Experimental: as §2

breast (BT474) = test: Methylene Blue Growth Inhibition Assay, BT474; assay type: cell-based; conditions: Homo sapiens, BT-474, 72 h; 3 days incubation, methylene blue staining; read-out: BT474 IC50 uM Cell
Experimental: as §2

[3] = target: EGFr isolated from solubilised A431 cell membranes (Homo sapiens, UniProt P00533); test: Substrate phosphorylation assay, EGFR tyrosine kinase inhibition; assay type: biochemical; conditions: tested in buffered solution
Sequence of EGFr isolated from solubilised A431 cell membranes (P00533 25-1210): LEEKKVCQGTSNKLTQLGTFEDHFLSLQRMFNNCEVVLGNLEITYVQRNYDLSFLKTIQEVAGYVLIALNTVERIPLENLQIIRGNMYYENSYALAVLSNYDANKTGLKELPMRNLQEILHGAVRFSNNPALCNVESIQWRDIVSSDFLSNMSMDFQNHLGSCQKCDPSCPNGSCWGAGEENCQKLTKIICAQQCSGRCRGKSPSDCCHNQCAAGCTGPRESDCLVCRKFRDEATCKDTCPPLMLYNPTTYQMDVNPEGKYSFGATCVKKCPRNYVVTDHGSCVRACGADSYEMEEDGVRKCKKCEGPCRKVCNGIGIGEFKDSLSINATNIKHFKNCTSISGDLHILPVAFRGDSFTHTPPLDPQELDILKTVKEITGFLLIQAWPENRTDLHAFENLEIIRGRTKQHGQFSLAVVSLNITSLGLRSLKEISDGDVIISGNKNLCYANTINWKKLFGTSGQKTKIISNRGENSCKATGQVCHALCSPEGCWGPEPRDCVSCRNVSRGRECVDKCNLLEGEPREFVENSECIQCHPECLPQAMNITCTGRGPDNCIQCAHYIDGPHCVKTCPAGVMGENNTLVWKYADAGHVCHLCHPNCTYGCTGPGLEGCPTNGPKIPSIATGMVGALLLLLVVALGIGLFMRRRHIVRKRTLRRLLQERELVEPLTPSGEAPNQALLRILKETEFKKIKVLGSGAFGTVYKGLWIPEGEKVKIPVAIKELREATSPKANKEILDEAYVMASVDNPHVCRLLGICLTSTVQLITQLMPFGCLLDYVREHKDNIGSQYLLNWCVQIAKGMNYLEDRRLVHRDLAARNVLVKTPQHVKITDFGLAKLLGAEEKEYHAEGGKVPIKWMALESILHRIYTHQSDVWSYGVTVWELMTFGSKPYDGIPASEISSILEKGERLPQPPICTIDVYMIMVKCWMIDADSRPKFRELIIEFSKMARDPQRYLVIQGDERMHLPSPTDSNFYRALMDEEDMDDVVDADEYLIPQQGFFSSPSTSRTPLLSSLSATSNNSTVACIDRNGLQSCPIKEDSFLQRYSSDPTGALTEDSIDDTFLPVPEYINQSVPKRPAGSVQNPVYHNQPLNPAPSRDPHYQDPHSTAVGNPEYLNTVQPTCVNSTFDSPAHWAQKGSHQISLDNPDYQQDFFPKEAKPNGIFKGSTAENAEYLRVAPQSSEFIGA
Text: as §1

[4] = Moisture sorption testing; assay type: physicochemical; conditions: at the humidities to which it might be exposed (e.g., 20-75% relative humidity (RH))
Experimental: Approximately 12 mg of N-{3-Chloro-4-[(3-fluorobenzyl) oxy]phenyl}-6-[5-({[2-(methanesulphonyl)ethyl] amino}methyl)-2-furyl]-4-quinazolinamine ditosylate monohydrate salt prepared according to Example 10 was weighed into a sample pan of a moisture sorption apparatus (model number SGA-100, made by VTI). The sample was dried at 60°C under a nitrogen stream until the weight loss was less than 0.015% in 5 minutes. The relative humidity (RH) was then increased (adsorption) to 5, 15, 25, 35, 45, 55, 65, 75, 85 and 95% - at each step, equilibrium was defined as a weight change of less than 0.015% in 5 minutes. The relative humidity was then decreased (desorption) to 90, 80, 70, 60, 50, 40, 30, and 20% with the same equilibrium condition. The sorption curve (y-axis: Weight - % change vs. x-axis: % RH) is depicted in Figure 3(a).
Approximately 15 mg of N-{3-Chloro-4-[(3-fluorobenzyl) oxy]phenyl}-6-[5-({[2-(methanesulphonyl)ethyl]amino}methyl)-2-furyl]-4-quinazolinamine di-HCl salt was weighed into a sample pan of a moisture sorption apparatus (model number SGA-100 , made by VTI). The sample was dried at 60°C under a nitrogen stream until the weight loss was less than 0.015% in 5 minutes. The relative humidity was then increased (adsorption) to 5, 15, 25, 35, 45, 55, 65, 75, 85 and 95% - at each step, equilibrium was defined as a weight change of less than 0.015% in 5 minutes. […]

Row | IC50 (c-erbB-2) | IC50 (c-erbB-4) | IC50 [2] | IC50 (breast (BT474)) | IC50 [3] | SMILES | IC50 (head and neck (HN5)) | other results
1 |  |  |  |  |  | CS(=O)(=O)CCNCc1ccc(-c2ccc3ncnc(Nc4ccc(OCc5cccc(F)c5)c(Cl)c4)c3c2)o1 [Example 10, N-{3-Chloro-4-[(3-f/uorobenzyl)oxy]phenyl}-6-[5-({[2-(methanesulphonyl)ethyl]amino}methyl)-2-furyl]-4-quinazolinamine ditosylate monohydrate] |  | RH at which the monohydrate becomes the thermodynamically stable form ([1]; remains stable up through 100% RH, slurry equilibration at 25°C): 7 - 15 % RH
2 | < 0.1 µM | 0.1 to 1 µM | < 5 µM | < 5 µM | < 0.1 µM | CS(=O)(=O)CCNCc1nc(-c2ccc3ncnc(Nc4ccc(OCc5cccc(F)c5)c(Cl)c4)c3c2)cs1 [Example 13, (4-(3-Fluoro-benzyloxy)-3-chlorophenyl)-(6-(2-((2-methanesulphonyl-ethylamino)-methyl)-thiazol-4-yl)quinazolin-4-yl)-amine ditosylate] | < 5 µM | 
3 |  |  |  |  |  | CS(=O)(=O)CCNCc1ccc(-c2ccc3ncnc(Nc4ccc(OCc5cccc(F)c5)c(Cl)c4)c3c2)o1.Cc1ccc(S(=O)(=O)O)cc1.Cc1ccc(S(=O)(=O)O)cc1 [N-{3-Chloro-4-[(3-fluorobenzyl)oxy]phenyl}-6-[5-({[2-(methanesulphonyl)ethyl]amino}methyl)-2-furyl]-4-quinazolinamine ditosylate] |  | Equilibrium Form ([1]; RH 0 %, Water Volume 0 %, Water Mole Fraction 0.00, 1:1 anhydrate/monohydrate slurry in MeOH/H2O): Anhydrate; Equilibrium Form ([1]; RH 7 %, Water Volume 2 %, Water Mole Fraction 0.04, 1:1 anhydrate/monohydrate slurry in MeOH/H2O): Anhydrate; Equilibrium Form ([1]; RH 15 %, Water Volume 5 %, Water Mole Fraction 0.11, 1:1 anhydrate/monohydrate slurry in MeOH/H2O): Monohydrate; Equilibrium Form ([1]; RH 26 %, Water Volume 10 %, Water Mole Fraction 0.20, 1:1 anhydrate/monohydrate slurry in MeOH/H2O): Monohydrate; Equilibrium Form ([1]; RH 43 %, Water Volume 20 %, Water Mole Fraction 0.36, 1:1 anhydrate/monohydrate slurry in MeOH/H2O): Monohydrate; Equilibrium Form ([1]; RH 66 %, Water Volume 40 %, Water Mole Fraction 0.60, 1:1 anhydrate/monohydrate slurry in MeOH/H2O): Monohydrate; Equilibrium Form ([1]; RH 80 %, Water Volume 60 %, Water Mole Fraction 0.77, 1:1 anhydrate/monohydrate slurry in MeOH/H2O): Monohydrate; Equilibrium Form ([1]; RH 91 %, Water Volume 80 %, Water Mole Fraction 0.90, 1:1 anhydrate/monohydrate slurry in MeOH/H2O): Monohydrate; Equilibrium Form ([1]; RH 95 %, Water Volume 90 %, Water Mole Fraction 0.95, 1:1 anhydrate/monohydrate slurry in MeOH/H2O): Monohydrate; Equilibrium Form ([1]; RH 100 %, Water Volume 100 %, Water Mole Fraction 1.00, 1:1 anhydrate/monohydrate slurry): Monohydrate
4 |  |  |  |  |  | CS(=O)(=O)CCNCc1ccc(-c2ccc3ncnc(Nc4ccc(OCc5cccc(F)c5)c(Cl)c4)c3c2)o1.Cl.Cl [di-HCl salt, N-{3-Chloro-4-[(3-fluorobenzyl)oxy]phenyl}-6-[5-({[2-(methanesulphonyl)ethyl]amino}methyl)-2-furyl]-4-quinazolinamine di-HCl salt] |  | water sorption [4]: sorbs very large amounts of water
5 | < 0.1 µM | 1 to 10 µM | < 5 µM | < 5 µM | < 0.1 µM | CS(=O)(=O)CCNCc1ccc(-c2ccc3ncnc(Nc4ccc(OCc5cccc(F)c5)c(Br)c4)c3c2)o1 [Example 12, (4-(3-Fluoro-benzyloxy)-3-bromophenyl)-(6-(5-((2-methanesulphonyl-ethylamino)-methyl)-furan-2 yl)quinazolin-4 yl)-amine ditosylate] | < 5 µM | 

Row | SMILES | IC50 (c-erbB-2) | IC50 (c-erbB-4) | IC50 [2] | IC50 (breast (BT474)) | IC50 [3] | IC50 (head and neck (HN5)) | other results
6 | CS(=O)(=O)CCNCc1ccc(-c2ccc3ncnc(Nc4ccc(OCc5cccc(F)c5)c(Cl)c4)c3c2)o1 [Example 8, N-{3-Chloro-4-[(3-fluorobenzyl)oxy]phenyl}-6-[5({[2-(methanesulphonyl)ethyl]amino}methyl)-2-furyl]-4-quinazolinamine ditosylate anhydrate] |  |  | < 5 µM | < 5 µM |  | < 5 µM | 
